“And” between values parts separate entries of the source, which are not always exact repeats. Equal values may be shown once. Inconclusive results and toxic doses are left out. Rule as the data show it: active = T/C of 150% or more; inactive = T/C below 125%.
Test system: L1210 leukemia ip in BDF1 mice, survival T/C
Assay: NCI In Vivo Anticancer Drug Screen. Data for tumor model L1210 Leukemia (intraperitoneal) in B6D2F1 (BDF1) mice
Settings: higher = longer survival
Method in brief: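 In this screen, tumor-bearing mice given compound are compared to those given vehicle, and their survival values are reported as a treated-to-control quotient.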

[1] = endpoint: mean survival time, dose: 50.0 mg/kg/injection, schedule: Q01DX009 (ip), vehicle: saline with Tween-80
[2] = endpoint: mean survival time, dose: 100.0 mg/kg/injection, schedule: Q01DX009 (ip), vehicle: saline with Tween-80
[3] = endpoint: mean survival time, dose: 200.0 mg/kg/injection, schedule: Q01DX009 (ip), vehicle: saline with Tween-80
[4] = endpoint: mean survival time, dose: 100.0 mg/kg/injection, schedule: Q01DX009 (ip), vehicle: Klucel (hydroxypropylcellulose) (HPC)
[5] = endpoint: mean survival time, dose: 100.0 mg/kg/injection, schedule: Q04DX003 (ip), vehicle: Klucel (hydroxypropylcellulose) (HPC)
[6] = endpoint: mean survival time, dose: 200.0 mg/kg/injection, schedule: Q01DX009 (ip), vehicle: Klucel (hydroxypropylcellulose) (HPC)
[7] = endpoint: mean survival time, dose: 200.0 mg/kg/injection, schedule: Q04DX003 (ip), vehicle: Klucel (hydroxypropylcellulose) (HPC)
[8] = endpoint: mean survival time, dose: 400.0 mg/kg/injection, schedule: Q01DX009 (ip), vehicle: Klucel (hydroxypropylcellulose) (HPC)
[9] = endpoint: mean survival time, dose: 400.0 mg/kg/injection, schedule: Q04DX003 (ip), vehicle: Klucel (hydroxypropylcellulose) (HPC)
[10] = endpoint: mean survival time, dose: 75.0 mg/kg/injection, schedule: Q01DX001 (ip), vehicle: saline
[11] = endpoint: mean survival time, dose: 100.0 mg/kg/injection, schedule: Q04DX002 (ip), vehicle: saline with Tween-80
[12] = endpoint: mean survival time, dose: 200.0 mg/kg/injection, schedule: Q04DX002 (ip), vehicle: saline with Tween-80
[13] = endpoint: mean survival time, dose: 400.0 mg/kg/injection, schedule: Q04DX002 (ip), vehicle: saline with Tween-80

Measured: T/C

CC[C@@H](c1ccc(O)cc1)[C@@H](CC)c1ccc(O)cc1
inactive: endpoint: mean survival time, dose: 25.0 mg/kg/injection, schedule: Q01DX009 (sc), vehicle: steriod suspending solution 100 % of control and 108 % of control | endpoint: mean survival time, dose: 25.0 mg/kg/injection, schedule: Q01DX010 (sc), vehicle: steriod suspending solution 101 % of control | endpoint: mean survival time, dose: 50.0 mg/kg/injection, schedule: Q01DX009 (sc), vehicle: steriod suspending solution 96 % of control and 100 % of control | endpoint: mean survival time, dose: 50.0 mg/kg/injection, schedule: Q01DX010 (sc), vehicle: steriod suspending solution 95 % of control | endpoint: mean survival time, dose: 100.0 mg/kg/injection, schedule: Q01DX009 (sc), vehicle: steriod suspending solution 96 % of control and 102 % of control | endpoint: mean survival time, dose: 100.0 mg/kg/injection, schedule: Q01DX010 (sc), vehicle: steriod suspending solution 98 % of control | endpoint: mean survival time, dose: 125.0 mg/kg/injection, schedule: Q01DX Z (ip), vehicle: carboxymethylcellulose (CMC) 91 % of control | endpoint: mean survival time, dose: 200.0 mg/kg/injection, schedule: Q01DX009 (sc), vehicle: steriod suspending solution 93 % of control and 99 % of control | endpoint: mean survival time, dose: 200.0 mg/kg/injection, schedule: Q01DX010 (sc), vehicle: steriod suspending solution 95 % of control | endpoint: median survival time, dose: 25.0 mg/kg/injection, schedule: Q01DX009 (sc), vehicle: steriod suspending solution 100 % of control | endpoint: median survival time, dose: 50.0 mg/kg/injection, schedule: Q01DX009 (sc), vehicle: steriod suspending solution 100 % of control and 111 % of control | endpoint: median survival time, dose: 100.0 mg/kg/injection, schedule: Q01DX009 (sc), vehicle: steriod suspending solution 100 % of control and 111 % of control | endpoint: median survival time, dose: 200.0 mg/kg/injection, schedule: Q01DX009 (sc), vehicle: steriod suspending solution 100 % of control

O=C1CC(=O)N(c2ccccc2)C(=O)N1
inactive: [1] 99 % of control | [2] 99 % of control | [3] 99 % of control

CCC(C(OC(C)=O)C(C)C)[N+](=O)[O-] (centres undefined)
inactive: endpoint: mean survival time, dose: 9.38 mg/kg/injection, schedule: Q01DX001 (ip), vehicle: other 104 % of control | endpoint: mean survival time, dose: 18.75 mg/kg/injection, schedule: Q01DX001 (ip), vehicle: other 105 % of control

CC(C)(C)C(C)(O)C(=O)O (centres undefined)
inactive: [1] 93 % of control | [2] 97 % of control | [3] 93 % of control

CC(C)C(=O)NN
inactive: endpoint: mean survival time, dose: 100.0 mg/kg/injection, schedule: Q04DX003 (ip), vehicle: saline 98 % of control | endpoint: mean survival time, dose: 200.0 mg/kg/injection, schedule: Q04DX003 (ip), vehicle: saline 101 % of control | endpoint: mean survival time, dose: 400.0 mg/kg/injection, schedule: Q04DX003 (ip), vehicle: saline 101 % of control

Cc1ccccc1NC(=O)NCCc1ccccc1
inactive: [4] 93 % of control | [5] 88 % of control | [6] 91 % of control | [7] 93 % of control | [8] 98 % of control | [9] 90 % of control

CC(C)(N)CN
inactive: endpoint: mean survival time, dose: 100.0 mg/kg/injection, schedule: Q01DX001 (ip), vehicle: saline 96 % of control | endpoint: mean survival time, dose: 200.0 mg/kg/injection, schedule: Q01DX001 (ip), vehicle: saline 96 % of control | endpoint: mean survival time, dose: 400.0 mg/kg/injection, schedule: Q01DX001 (ip), vehicle: saline 94 % of control

COC(=O)C(Br)C(OC)c1ccccc1 (centres undefined)
inactive: [4] 96 % of control | [6] 96 % of control | [8] 98 % of control

O=C(c1ccccc1)c1ccc[n+](Cc2c(Cl)cccc2Cl)c1
inactive: [10] 101 % of control

Cc1ccc(C(=O)C2C3C=CC(C3)C2C(=O)c2ccc(C)cc2)cc1 (centres undefined)
inactive: endpoint: mean survival time, dose: 75.0 mg/kg/injection, schedule: Q01DX009 (ip), vehicle: Klucel (hydroxypropylcellulose) (HPC) 95 % of control | endpoint: mean survival time, dose: 150.0 mg/kg/injection, schedule: Q01DX009 (ip), vehicle: Klucel (hydroxypropylcellulose) (HPC) 90 % of control | endpoint: mean survival time, dose: 300.0 mg/kg/injection, schedule: Q01DX009 (ip), vehicle: Klucel (hydroxypropylcellulose) (HPC) 95 % of control

C[N+](C)(C)CCOC(=O)c1ccccc1CBr
inactive: endpoint: mean survival time, dose: 1.5 mg/kg/injection, schedule: Q04DX002 (ip), vehicle: other 98 % of control | endpoint: mean survival time, dose: 3.0 mg/kg/injection, schedule: Q04DX002 (ip), vehicle: other 90 % of control | endpoint: mean survival time, dose: 3.13 mg/kg/injection, schedule: Q01DX009 (ip), vehicle: saline 101 % of control | endpoint: mean survival time, dose: 6.0 mg/kg/injection, schedule: Q04DX002 (ip), vehicle: other 105 % of control | endpoint: mean survival time, dose: 6.25 mg/kg/injection, schedule: Q01DX009 (ip), vehicle: saline 97 % of control | endpoint: mean survival time, dose: 6.25 mg/kg/injection, schedule: Q04DX003 (ip), vehicle: saline 105 % of control | endpoint: mean survival time, dose: 12.5 mg/kg/injection, schedule: Q04DX003 (ip), vehicle: saline 91 % of control

CS(=O)(=O)OCCNCCOS(C)(=O)=O
inactive: endpoint: mean survival time, dose: 15.0 mg/kg/injection, schedule: Q01DX001 (ip), vehicle: saline 104 % of control | endpoint: mean survival time, dose: 30.0 mg/kg/injection, schedule: Q01DX001 (ip), vehicle: saline 113 % of control | endpoint: mean survival time, dose: 60.0 mg/kg/injection, schedule: Q01DX001 (ip), vehicle: saline 106 % of control | [10] 93 % of control

Cl[C](Cl)([Pb]([c]1ccccc1)([c]1ccccc1)[c]1ccccc1)[Pb]([c]1ccccc1)([c]1ccccc1)[c]1ccccc1
inactive: [11] 98 % of control | [12] 94 % of control | [13] 90 % of control

COc1cc(N=Cc2ccc([N+](=O)[O-])cc2)c2ncccc2c1
inactive: endpoint: mean survival time, dose: 100.0 mg/kg/injection, schedule: Q01DX001 (ip), vehicle: carboxymethylcellulose (CMC) 101 % of control | endpoint: mean survival time, dose: 200.0 mg/kg/injection, schedule: Q01DX001 (ip), vehicle: carboxymethylcellulose (CMC) 94 % of control | endpoint: mean survival time, dose: 400.0 mg/kg/injection, schedule: Q01DX001 (ip), vehicle: carboxymethylcellulose (CMC) 92 % of control

c1ccc2c(c1)ccc1nc3ccc4ccccc4c3cc12
inactive: endpoint: mean survival time, dose: 5.0 mg/kg/injection, schedule: Q01DX001 (ip), vehicle: saline 86 % of control | endpoint: mean survival time, dose: 20.0 mg/kg/injection, schedule: Q01DX001 (ip), vehicle: saline 97 % of control | endpoint: mean survival time, dose: 40.0 mg/kg/injection, schedule: Q01DX001 (ip), vehicle: saline 95 % of control | endpoint: mean survival time, dose: 80.0 mg/kg/injection, schedule: Q01DX001 (ip), vehicle: saline 97 % of control

Cc1nc(N)nc2c1CCC(=O)N2
inactive: [5] 100 % of control | [7] 89 % of control | [9] 94 % of control

IC1CCC2OC1CCC2I (centres undefined)
inactive: [11] 94 % of control | [12] 94 % of control | [13] 109 % of control

C=C(S(=O)(=O)c1ccccc1)S(=O)(=O)c1ccccc1 (tested in a mixture with another compound)
inactive: endpoint: mean survival time, dose: 10.0 mg/kg/injection, schedule: Q04DX002 (ip), vehicle: Klucel (hydroxypropylcellulose) (HPC) 117 % of control | endpoint: mean survival time, dose: 20.0 mg/kg/injection, schedule: Q04DX002 (ip), vehicle: Klucel (hydroxypropylcellulose) (HPC) 102 % of control | endpoint: mean survival time, dose: 40.0 mg/kg/injection, schedule: Q04DX002 (ip), vehicle: Klucel (hydroxypropylcellulose) (HPC) 91 % of control | endpoint: mean survival time, dose: 200.0 mg/kg/injection, schedule: Q04DX002 (ip), vehicle: Klucel (hydroxypropylcellulose) (HPC) 86 % of control

Nc1nc(SCc2ccccc2)c(N)c(=S)[nH]1
inactive: endpoint: mean survival time, dose: 100.0 mg/kg/injection, schedule: Q01DX001 (ip), vehicle: Klucel (hydroxypropylcellulose) (HPC) 95 % of control | endpoint: mean survival time, dose: 200.0 mg/kg/injection, schedule: Q01DX001 (ip), vehicle: Klucel (hydroxypropylcellulose) (HPC) 90 % of control | endpoint: mean survival time, dose: 400.0 mg/kg/injection, schedule: Q01DX001 (ip), vehicle: Klucel (hydroxypropylcellulose) (HPC) 93 % of control

Source: PubChem BioAssay AID248 (DTP/NCI, 2004)
